Source: publication PMC12285266, “Function and regulation of pob genes for 4-hydroxybenzoate catabolism in Agrobacterium tumefaciens” (Applied and Environmental Microbiology, 2025)

How the values were obtained:
[1] = target: T1, PobR (Atu4545), HIS-atu4545 (Agrobacterium fabrum, UniProt Q7CV81); test: EMSA, effect on PobR/DNA complex formation; type: binding; conditions: FAM-labelled atu4544-atu4545 intergenic DNA; varying concentrations; pH 8.0, 25 C
T1 construct: full ORF (924 bp) in pET30a, N-terminal His tag kept, E. coli BL21(DE3)
T1 sequence (Q7CV81 1-307): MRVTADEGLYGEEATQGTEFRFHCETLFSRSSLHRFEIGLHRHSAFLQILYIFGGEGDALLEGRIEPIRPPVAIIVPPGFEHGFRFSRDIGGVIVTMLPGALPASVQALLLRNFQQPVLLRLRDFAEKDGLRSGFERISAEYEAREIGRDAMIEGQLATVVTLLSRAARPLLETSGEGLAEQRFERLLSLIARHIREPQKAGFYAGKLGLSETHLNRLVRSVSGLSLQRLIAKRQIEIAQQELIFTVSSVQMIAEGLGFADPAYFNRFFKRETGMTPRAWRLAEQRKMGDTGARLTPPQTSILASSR

[2] = target: T2, PobR (HIS-atu4545) (Agrobacterium tumefaciens C58) (UniProt Q7CV81); test: competition; conditions: EMSA: per 50 mL binding buffer 0.394 g Tris-base, 0.186 g KCl, 0.019 g EDTA-2Na, 10% glycerol, 0.008 g DTT (about 65 mM Tris, 50 mM KCl, 1 mM EDTA, 1 mM DTT) …
T2 sequence: T1 sequence (Q7CV81 1-307)

[3] = target: T3, PobA (Atu4544), GST-atu4544 (Agrobacterium fabrum, UniProt Q7CV80); test: HPLC of substrate consumption and protocatechuate formation; type: biochemical; conditions: NADPH or NADH 0.4 mM, FAD 5 uM, 0.5 mM substrate, 50 mM Tris-Cl pH 7.4, 30 C; GST-tagged enzyme
T3 construct: full ORF (1,173 bp) in pGEX-4T-1, N-terminal GST tag kept, E. coli BL21(DE3), about 70 kDa with tag
T3 sequence (Q7CV80 1-390): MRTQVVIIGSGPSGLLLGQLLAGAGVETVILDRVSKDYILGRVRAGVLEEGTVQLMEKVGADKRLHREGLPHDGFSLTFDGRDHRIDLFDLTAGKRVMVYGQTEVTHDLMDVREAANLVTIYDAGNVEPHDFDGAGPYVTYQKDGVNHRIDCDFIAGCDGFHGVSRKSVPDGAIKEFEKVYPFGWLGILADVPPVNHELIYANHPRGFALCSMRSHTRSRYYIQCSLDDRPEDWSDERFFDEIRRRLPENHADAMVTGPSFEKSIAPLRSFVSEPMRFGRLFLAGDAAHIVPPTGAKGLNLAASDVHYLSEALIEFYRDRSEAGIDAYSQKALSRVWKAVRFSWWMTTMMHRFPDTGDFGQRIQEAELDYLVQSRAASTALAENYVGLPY

Question: `O=C(O)CCCCC(=O)O` [adipic acid] was tested. Which “EMSA, effect on PobR/DNA complex formation” value [1] did it give?
Answer: The increased adipic acid seemed to hinder the binding of the PobR/DNA probe

Question: Which binding [2] does the source give for “CATCGTGACGATCACTCCACCGATATCGCGTGAAAAGCGGAAGCCATGTTCGAAACCCGGTGGCACGATGATGGCGACCGGCGGGCGGATCGGCTCGATGCGGCCTTCCAGCAACGCATCGATCGTCGACCTGCAGGCA (double strand) [unrelated DNA (pobR-inter)]” here?
Answer: no binding

Question: `O=C(O)c1ccc(O)cc1` [4-hydroxybenzoate] was tested. Which “HPLC of substrate consumption and protocatechuate formation” value [3] did it give?
Answer: Atu4544 (PobA) catalyzed the hydroxylation of 4-hydroxybenzoate to produce protocatechuate

Question: “CATCTCACCATCACTCCTCCGTGCGATGGTCGGATTGTGCAATTTACAGACAGAAAAGTCCATTGAGCTTGTGGCCGGTCTTGGTCAATTTCTTGACCGGAGACAAGTTCGGGAGGACATCATCGTCGACCTGCAGGCA (double strand) [unlabeled intergenic competitor]” was tested. Which binding [2] did it give?
Answer: binds
